Laboratory results: ChEMBL document CHEMBL1144787, “Insect antifeedant sesquiterpene acetals from the liverwort Lepidolaena clavigera. 2. structures, artifacts, and activity” (J Nat Prod, 2008)

Key:
[1] = tested on: Tineola bisselliella; assay: Survival of Tineola bisselliella larvae at 0.1% w/w relative to control; format: functional
[2] = Cytotoxicity against monkey BSC cells assessed as zone of inhibition at 30 ug/disc; format: cell-based, Macaca mulatta; details: rhesus monkey
[3] = Antifeedant activity in Tineola bisselliella larvae assessed as loss in wool weight at 0.1% w/w relative to control; format: functional
[4] = tested on: Eurhopalus australis; assay: Survival of Anthrenocerus australis larvae at 0.1% w/w relative to control; format: functional
[5] = Antifeedant activity in Anthrenocerus australis larvae assessed as loss in wool weight at 0.05% w/w relative to control; format: functional
[6] = Antifeedant activity in Anthrenocerus australis larvae assessed as loss in wool weight at 0.1% w/w relative to control; format: functional
[7] = tested on: Eurhopalus australis; assay: Survival of Anthrenocerus australis larvae at 0.025% w/w relative to control; format: functional
[8] = Antifeedant activity in Anthrenocerus australis larvae assessed as loss in wool weight at 0.025% w/w relative to control; format: functional
[9] = tested on: Eurhopalus australis; assay: Survival of Anthrenocerus australis larvae at 0.05% w/w relative to control; format: functional
[10] = Cytotoxicity against monkey BSC cells assessed as zone of inhibition at 60 ug/disc; format: cell-based, Macaca mulatta; details: rhesus monkey
[11] = tested on: Tineola bisselliella; assay: Antifeedant activity in Tineola bisselliella larvae assessed as loss in wool weight at 0.01% w/w relative to control; format: functional
[12] = Antifeedant activity in Anthrenocerus australis larvae assessed as loss in wool weight at 0.01% w/w relative to control; format: functional
[13] = tested on: Eurhopalus australis; assay: Survival of Anthrenocerus australis larvae at 0.01% w/w relative to control; format: functional
[14] = tested on: Tineola bisselliella; assay: Survival of Tineola bisselliella larvae at 0.01% w/w relative to control; format: functional

| SMILES | survival at 0.1 % strength [1] | inhibition zone (IZ) [2] | Activity [3] | survival at 0.1 % strength [4] | Activity [5] | Activity [6] | survival at 0.025 % strength [7] | Activity [8] | survival at 0.05 % strength [9] | inhibition zone (IZ) [10] | Activity [11] | Activity [12] | survival at 0.01 % strength [13] | survival at 0.01 % strength [14] |
| --- | --- | --- | --- | --- | --- | --- | --- | --- | --- | --- | --- | --- | --- | --- |
| CC(=O)OC(C(=O)C=C(C)C)[C@]12[C@@H](OC(C)=O)O[C@@H]3C=C(C)[C@H]1C[C@@H]32 (stereo partly drawn) [CLAVIGERIN A] | 95% | 1 mm | 2% |  |  |  |  |  |  |  |  |  |  |  |
| CC(=O)O[C@H]1O[C@@H]2C=C(C)[C@H]3C[C@@H]2[C@@]13CC(=O)C=C(C)C [CLAVIGERIN B] | 27% | 1 mm | -74% | 95% | -79% | -78% | 98% | -34% | 98% |  |  |  |  |  |
| CC(=O)O[C@H]1O[C@@H]2C=C(C)[C@H]3C[C@@H]2[C@@]13CC(=O)CC(C)C [CLAVIGERIN C] | 5% | > 4 mm | -95% | 96% | -62% | -86% | 98% | -50% | 97% |  |  |  |  |  |
| CO[C@H]1O[C@@H]2C=C(C)[C@H]3C[C@@H]2[C@@]13CC(=O)CC(C)C [METHOXY CLAVIGERIN C] | 86% |  | -12% |  |  |  |  |  |  | 1 mm |  |  |  |  |
| CC1(C)C(C=C(Cl)Cl)C1C(=O)OCc1cccc(Oc2ccccc2)c1 (stereo not drawn) [PERMETHRIN] |  |  |  |  |  |  |  |  |  |  | -100% | -100% | 96% | 0% |
